Assay results: US9931324B2, “Indolizine derivatives and their use in neurodegenerative diseases” (Merck Patent GmbH, priority 2014, dated 2018)

molecular target: T1, P2X7 (Homo sapiens, UniProt Q99572); assay: IL-1β release assay in THP-1 cells (sandwich ELISA, BzATP-stimulated); format: cell-based; parameters: endogenous in cells; host or cells: THP-1 cells (PMA-differentiated, LPS-primed); details: LPS primed, 0.8 mM BzATP, mature IL-1β release, read-out: hTHP-1/IL-ib IC50
T1 sequence (Q99572 1-595): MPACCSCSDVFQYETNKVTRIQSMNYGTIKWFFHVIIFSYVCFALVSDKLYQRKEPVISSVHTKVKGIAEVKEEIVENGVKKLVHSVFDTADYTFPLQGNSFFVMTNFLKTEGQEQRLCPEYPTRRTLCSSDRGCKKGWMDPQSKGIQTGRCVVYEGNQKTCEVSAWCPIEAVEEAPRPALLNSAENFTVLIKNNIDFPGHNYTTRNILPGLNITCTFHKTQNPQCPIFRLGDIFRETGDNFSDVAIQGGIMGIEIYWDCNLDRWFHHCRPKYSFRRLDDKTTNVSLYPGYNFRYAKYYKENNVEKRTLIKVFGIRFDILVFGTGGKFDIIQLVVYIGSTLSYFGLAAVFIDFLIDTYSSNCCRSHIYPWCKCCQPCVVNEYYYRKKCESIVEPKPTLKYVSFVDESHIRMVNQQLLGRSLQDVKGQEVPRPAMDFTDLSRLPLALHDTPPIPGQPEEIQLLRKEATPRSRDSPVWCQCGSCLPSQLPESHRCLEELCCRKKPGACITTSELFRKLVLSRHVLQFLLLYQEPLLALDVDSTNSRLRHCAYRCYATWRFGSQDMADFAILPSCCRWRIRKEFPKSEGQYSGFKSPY
Method: IL-1β release assay: The activation of P2X7 by ATP leads to a fast transient activation of cells resulting in influx of Ca^2+ followed by conversion of pro-IL-1β to active IL-1β. The functional activity of P2X7 compounds was measured by the release of mature IL-1β in the culture medium of THP-1 cells, detected by sandwich ELISA. Cells were maintained in complete growth medium (RPMI 1640+10% HI-FCS+2 mM L-glutamine+1× PS). […] THP-1 cells were harvested from the flask in 50 ml by centrifugation for 3 min at 100 g. The cells were resuspended to 2×10^5 cells/ml in medium supplemented with 0.5 μM PMA and incubated. The cells were washed and resuspended to 1.5×10^5 cells/ml in medium complemented with 10 ng/ml LPS, and the cells were primed for 4 h at 37° C., 5% CO2. After addition of 20 μL of prediluted test compounds, blank, standard and control reagents, cells were incubated for a further 20 min at 37° C. and stimulated with 0.8 mM BzATP for 30 minutes. The cells were centrifuged, supernatant was collected and the presence of mature IL-1β was detected using Dual human IL-1b kit following manufacturer's instruction. The tetrahydrobenzodiazepine analogs effectively modulated the activity of P2X7 in the cells as measured by the levels of pro-inflammatory cytokine IL-1β, which is released by the activation of P2X7 receptor.

Compound	IC50 [nM]
COCCc1cc(C(=O)NCC2(O)CCCC(F)(F)C2)c2c(Cl)cccn12 (stereo in doubt) [Compound 63, 8-Chloro-3-(2-methoxy-ethyl)-indolizine-1-carboxylic Acid ((S)-3,3-difluoro-1-hydroxy-cyclohexylmethyl)-amide]	< 10
COCCc1cc(C(=O)NCC2CCCCCC2)c2c(Cl)cccn12 [Compound 1, 8-chloro-N-(cycloheptylmethyl)-3-(2-methoxyethyl)indolizine-1-Carboxamide]	101 to 500
COCCc1cc(C(=O)NCC2CCCC3(CC3)C2)c2c(Cl)cccn12 (centres unmarked) [Compound 2, 8-chloro-3-(2-methoxyethyl)-N-(spiro[2.5]octan-5-ylmethyl)indolizine-1-carboxamide]	10 to 100
COCCc1cc(C(=O)NCCC2(O)CCCC2)c2c(Cl)cccn12 [Compound 59, 8-chloro-N-(2-(1-hydroxycyclopentyl)ethyl)-3-(2-methoxyethyl)indolizine-1-carboxamide]	> 1000

molecular target: T1, P2X7; assay: Pore permeation assay (YO PRO dye uptake, BzATP-induced); format: cell-based; parameters: expressed in transfected cells; host or cells: HEK293; details: HEK293 transfected with human P2X7 receptor, BzATP 10 uM, read-out: hP2X7 IC50
Method: Agonist-induced pore formation was determined by measuring cellular uptake of YO PRO fluorescence dye in HEK293 transfected with human P2X7 receptor. A HEK293 cell over expressing human P2X7 was harvested using HQTase reagent to detach the cells from T75 cm flask. The harvested cells are centrifuged @1200 rpm for 5 min at room temperature. The viability of cells was determined by Trypan blue dye and the cells are plated @10,000 cell/well in 50 ul volume in a 384W BD Poly lysine coated plate and incubated overnight at 37 C. After overnight incubation, the culture medium was replaced with 35 ul/well assay buffer (5 mM KCl, 0.1 mM CaCl2, 5 mM Glucose, 10 mM HEPES buffer pH7.4 containing 125 mM NaCl. The serial dilution of compounds was performed using Bravo liquid handling instrument and the compounds were added using Bravo to the cell assay plate starting at 2.5 uM with three dilutions for 10 points. The positive control inhibitor compound was added to column 23. The plate was shaken slowly on a plate shaker for 10 seconds. The cells were incubated with the compound for 20 minutes at room temperature. After the incubation period, YO PRO dye (1 uM) along with BzATP (10 uM) were added to cells at 10 ul/well. The plate was centrifuged at 1000 rpm for 5 seconds and incubated at room temperature for 30 minutes. The uptake of YO PRO dye into the cells was measured using Envision Fluorescence plate reader instrument (Perkin Elmer).

Compound	IC50 [nM]
COCCc1cc(C(=O)NCC2(O)CCCC(F)(F)C2)c2c(Cl)cccn12 (stereo in doubt) [Compound 63, 8-Chloro-3-(2-methoxy-ethyl)-indolizine-1-carboxylic Acid ((S)-3,3-difluoro-1-hydroxy-cyclohexylmethyl)-amide]	< 10
COCCc1cc(C(=O)NCC2CCCCCC2)c2c(Cl)cccn12 [Compound 1, 8-chloro-N-(cycloheptylmethyl)-3-(2-methoxyethyl)indolizine-1-Carboxamide]	10 to 100
COCCc1cc(C(=O)NCC2CCCC3(CC3)C2)c2c(Cl)cccn12 (centres unmarked) [Compound 2, 8-chloro-3-(2-methoxyethyl)-N-(spiro[2.5]octan-5-ylmethyl)indolizine-1-carboxamide]	< 10
COCCc1cc(C(=O)NCc2cccc(C(F)(F)F)c2Cl)c2c(Cl)cccn12 [Compound 3, 8-chloro-N-(2-chloro-3-(trifluoromethyl)benzyl)-3-(2-methoxyethyl) indolizine-1-carboxamide]	101 to 500
O=C(NCC1(O)CCCC(C(F)(F)F)C1)c1cc(C2CCC2)n2cccc(Cl)c12 (centres unmarked) [Compound 4, 8-chloro-3-cyclobutyl-N-((1-hydroxy-3-(trifluoromethyl)cyclohexyl)methyl) indolizine-1-carboxamide]	> 1000
CC1CC(O)(CNC(=O)c2cc(C3CCC3)n3cccc(Cl)c23)CCC1(F)F (centres unmarked) [Compound 7, 8-chloro-3-cyclobutyl-N-((4,4-difluoro-1-hydroxy-3-methylcyclohexyl)methyl) indolizine-1-carboxamide]	101 to 500
CCOCCc1cc(C(=O)NCC2CCC(F)(F)CC2)c2c(Cl)cccn12 [Compound 19, 8-Chloro-3-(2-ethoxy-ethyl)-indolizine-1-carboxylic Acid (4,4-difluoro-cyclohexylmethyl)-amide]	101 to 500
O=C(NCC1(O)CCCC(F)(F)C1)c1cc(C2CCC2)n2cccc(Cl)c12 (centres unmarked) [Compound 20, 8-chloro-3-cyclobutyl-N-((3,3-difluoro-1-hydroxycyclohexyl)methyl) indolizine-1-carboxamide]	10 to 100
COCCc1cc(C(=O)NCC2CCC(F)(F)CC2)c2c(C)cccn12 [Compound 25, 3-(2-Methoxy-ethyl)-8-methyl-indolizine-1-carboxylic Acid (4,4-difluoro-cyclohexylmethyl)-amide]	101 to 500
COCCc1cc(C(=O)NCC2CCC(F)(F)CC2)c2c(C(F)(F)F)cccn12 [Compound 26, 3-(2-Methoxy-ethyl)-8-trifluoromethyl-indolizine-1-carboxylic Acid (4,4-difluorocyclohexylmethyl)-amide]	101 to 500
C[C@@H]1CCC[C@](O)(CNC(=O)c2cc(C3CCOCC3)n3cccc(Cl)c23)C1 [Compound 27, 8-chloro-N-(((1R,3R)-1-hydroxy-3-methylcyclohexyl)methyl)-3-(tetrahydro-2H-pyran-4-yl)indolizine-1-carboxamide]	10 to 100
O=C(NCC1(O)CCCC(C(F)(F)F)C1)c1cc(C2CCOCC2)n2cccc(Cl)c12 (centres unmarked) [Compound 28, 8-chloro-N-((1-hydroxy-3-(trifluoromethyl)cyclohexyl)methyl)-3-(tetrahydro-2H-pyran-4-yl)indolizine-1-carboxamide]	500 to 999
O=C(NCC1CCC(F)(F)CC1)c1cc(C2CCOCC2)n2cccc(Cl)c12 [Compound 33, 8-chloro-N-((4,4-difluorocyclohexyl)methyl)-3-(tetrahydro-2H-pyran-4-yl)indolizine-1-carboxamide]	10 to 100
O=C(NCC1CCC(F)(F)CC1)c1cc(CCF)n2cccc(Cl)c12 [Compound 34, 8-Chloro-3-(2-fluoro-ethyl)-indolizine-1-carboxylic Acid (4,4-difluoro-cyclohexylmethyl)-amide]	10 to 100
C[C@@H]1CCC[C@](O)(CNC(=O)c2cc(C3CCOC3)n3cccc(Cl)c23)C1 (stereo partly drawn) [Compound 38, 8-chloro-N-(((1R,3R)-1-hydroxy-3-methylcyclohexyl)methyl)-3-(tetrahydrofuran-3-yl)indolizine-1-carboxamide]	10 to 100
O=C(NCC1CCC(F)(F)CC1)c1ccn2cccc(Cl)c12 [Compound 42]	101 to 500
CC1CC(O)(CNC(=O)c2cc(C3CCOC3)n3cccc(Cl)c23)CCC1(F)F (centres unmarked) [Compound 44, 8-chloro-N-((4,4-difluoro-1-hydroxy-3-methylcyclohexyl)methyl)-3-(tetrahydrofuran-3-yl)indolizine-1-carboxamide]	101 to 500
COCCc1cc(C(=O)NCC2(O)CCC(F)(F)CC2)c2c(C)cccn12 [Compound 46, 3-(2-Methoxy-ethyl)-8-methyl-indolizine-1-carboxylic Acid (4,4-difluoro-1-hydroxy-cyclohexylmethyl)-amide]	101 to 500
COCCc1cc(C(=O)NCC2(O)CCC(F)(F)CC2)c2c(C(F)(F)F)cccn12 [Compound 49, 3-(2-Methoxy-ethyl)-8-trifluoromethyl-indolizine-1-carboxylic Acid (4,4-difluoro-1-hydroxy cyclohexylmethyl)-amide]	101 to 500
O=C(NCC1CCC(F)(F)CC1)c1cc(C2(O)CCOC2)n2cccc(Cl)c12 (centres unmarked) [Compound 55, 8-chloro-N-((4,4-difluorocyclohexyl)methyl)-3-(3-hydroxytetrahydrofuran-3-yl)indolizine-1-carboxamide]	101 to 500
O=C(NCC1(O)CCC(F)(F)CC1)c1cc(C2CCOCC2)n2cccc(Cl)c12 [Compound 56, 8-chloro-N-((4,4-difluoro-1-hydroxycyclohexyl)methyl)-3-(tetrahydro-2H-pyran-4-yl)indolizine-1-carboxamide]	10 to 100
O=C(NCC1CCC(F)(F)CC1)c1cc(C2(O)COC2)n2cccc(Cl)c12 [Compound 58, 8-Chloro-3-(3-hydroxy-oxetan-3-yl)-indolizine-1-carboxylic acid (4,4-difluoro-cyclohexylmethyl)-amide]	101 to 500
O=C(NCC1(O)CCCC(F)(F)C1)c1cc(CCO)n2cccc(Cl)c12 (centres unmarked) [Compound 68, 8-Chloro-3-(2-hydroxy-ethyl)-indolizine-1-carboxylic Acid (3,3-difluoro-1-hydroxy-cyclohexylmethyl)-amide]	10 to 100
O=C(NCC1(O)CCCC(C(F)(F)F)C1)c1cc(C2CCOC2)n2cccc(Cl)c12 (centres unmarked) [Compound 74, 8-chloro-N-((1-hydroxy-3-(trifluoromethyl)cyclohexyl)methyl)-3-(tetrahydrofuran-3-yl)indolizine-1-carboxamide]	> 1000
CC(CO)c1cc(C(=O)NCC2CCC(F)(F)CC2)c2c(Cl)cccn12 (centres unmarked) [Compound 75, 8-Chloro-3-(2-hydroxy-1-methyl-ethyl)-indolizine-1-carboxylic Acid (4,4-difluoro-cyclohexylmethyl)-amide]	10 to 100
